Experimental data as given in patent US20240360146A1, “BRUTON'S TYROSINE KINASE AND MUTANT DEGRADER, COMPOSITION AND APPLICATION THEREOF” (HANGZHOU HEALZEN THERAPEUTICS CO., LTD., priority 2021, published 2024).

Biological target: T1, BTK (Homo sapiens, UniProt Q06187)
T1 construct: endogenous in cells; host or cells: Mino cells
Assay: BTK degradation activity test in Mino cells
Format: cell-based
Conditions: 16 h incubation, Western blot or Elisa
In short: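 DC50 derived by curve fitting of BTK degradation rates versus untreated control across compound concentrations. Mino cells were exposed for 16 h; BTK levels in lysates, normalised via BCA protein, measured by Western blot or ELISA.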

T1 sequence (Q06187 whole entry): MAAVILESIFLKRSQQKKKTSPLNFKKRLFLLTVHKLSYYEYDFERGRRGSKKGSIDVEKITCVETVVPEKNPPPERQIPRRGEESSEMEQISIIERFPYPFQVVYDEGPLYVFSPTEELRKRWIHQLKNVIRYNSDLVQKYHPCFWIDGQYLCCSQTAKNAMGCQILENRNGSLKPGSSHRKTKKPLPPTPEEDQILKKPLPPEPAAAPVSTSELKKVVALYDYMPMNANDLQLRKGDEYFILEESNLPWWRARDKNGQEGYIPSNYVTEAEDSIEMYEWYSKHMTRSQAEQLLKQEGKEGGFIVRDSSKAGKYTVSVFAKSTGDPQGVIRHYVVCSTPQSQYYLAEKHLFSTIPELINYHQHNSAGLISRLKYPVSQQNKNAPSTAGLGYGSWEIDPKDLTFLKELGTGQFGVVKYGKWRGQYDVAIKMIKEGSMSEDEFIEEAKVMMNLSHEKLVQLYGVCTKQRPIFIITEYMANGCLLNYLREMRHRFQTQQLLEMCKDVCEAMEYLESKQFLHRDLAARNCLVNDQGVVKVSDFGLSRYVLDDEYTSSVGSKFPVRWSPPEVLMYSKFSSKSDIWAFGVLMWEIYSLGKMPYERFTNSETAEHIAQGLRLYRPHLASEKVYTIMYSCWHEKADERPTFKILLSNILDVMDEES

Structure (SMILES) | DC50 [nM]
CN1CCN([C@@H]2CCCN(c3nnc(C(N)=O)c(Nc4ccc(N5CCN(CC6CCN(c7ccc(N8CCC(=O)NC8=O)c(C8CC8)c7)CC6)CC5)c(F)c4)n3)C2)C1=O [Compound 194, (R)-5-((4-(4-((1-(3-cyclopropyl-4-(2,4-dioxotetrahydropyrimidin-1(2H)-yl)phenyl)piperidin-4-yl)methyl)piperazin-1-yl)-3-fluorophenyl)amino)-3-(3-(3-methyl-2-oxoimidazolidin-1-yl)piperidin-1-yl)-1,2,4-triazin-6-carboxamide] | < 1
CN1CCN([C@@H]2CCCN(c3nnc(C(N)=O)c(Nc4ccc(N5CCN(CC6CCN(c7ccc(N8CCC(=O)NC8=O)cc7S(C)(=O)=O)CC6)CC5)c(F)c4)n3)C2)C1=O [Compound 197, (R)-5-((4-(4-((1-(4-(2,4-dioxotetrahydropyrimidin-1(2H)-yl)-2-(methylsulfonyl)phenyl)piperidin-4-yl)methyl)piperazin-1-yl)-3-fluorophenyl)amino)-3-(3-(3-methyl-2-oxoimidazolidin-1-yl)piperidin-1-yl)-1,2,4-triazin-6-carboxamide] | < 1
CN1CCN([C@@H]2CCCN(c3nnc(C(N)=O)c(Nc4ccc(N5CCN(CC6CCN(c7ccc(N8CCC(=O)NC8=O)cc7P(C)(C)=O)CC6)CC5)c(F)c4)n3)C2)C1=O [Compound 198, (R)-5-((4-(4-((1-(2-(dimethylphosphoryl)-4-(2,4-dioxotetrahydropyrimidin-1(2H)-yl)phenyl)piperidin-4-yl)methyl)piperazin-1-yl)-3-fluorophenyl)amino)-3-(3-(3-methyl-2-oxoimidazolidin-1-yl)piperidin-1-yl)-1,2,4-triazin-6-carboxamide] | < 1
CN1CCN([C@@H]2CCCN(c3nnc(C(N)=O)c(Nc4ccc(N5CCN(CC6CCN(c7ccc(N8CCC(=O)NC8=O)c8cccnc78)CC6)CC5)c(F)c4)n3)C2)C1=O [Compound 199, (R)-5-((4-(4-((1-(5-(2,4-dioxotetrahydropyrimidin-1(2H)-yl)quinolin-8-yl)piperidin-4-yl)methyl)piperazin-1-yl)-3-fluorophenyl)amino)-3-(3-(3-methyl-2-oxoimidazolidin-1-yl)piperidin-1-yl)-1,2,4-triazin-6-carboxamide] | < 1
CN1CCN([C@@H]2CCCN(c3nnc(C(N)=O)c(Nc4ccc(N5CCN(CC6CCN(c7ccc(NC8CCC(=O)NC8=O)nc7)C6)CC5)c(F)c4)n3)C2)C1=O (stereo partly drawn) [Compound 200, 5-((4-(4-((1-(6-((2,6-dioxopiperidin-3-yl)amino)pyridin-3-yl)pyrrolidin-3-yl)methyl)piperazin-1-yl)-3-fluorophenyl)amino)-3-((R)-3-(3-methyl-2-oxoimidazolidin-1-yl)piperidin-1-yl)-1,2,4-triazin-6-carboxamide] | < 1
CN1CCN([C@@H]2CCCN(c3nnc(C(N)=O)c(Nc4ccc(N5CCN(CC6CCN(c7ccc(NC8CCC(=O)NC8=O)cn7)C6)CC5)c(F)c4)n3)C2)C1=O (stereo partly drawn) [Compound 201, 5-((4-(4-((1-(5-((2,6-dioxopiperidin-3-yl)amino)pyridin-2-yl)pyrrolidin-3-yl)methyl)piperazin-1-yl)-3-fluorophenyl)amino)-3-((R)-3-(3-methyl-2-oxoimidazolidin-1-yl)piperidin-1-yl)-1,2,4-triazin-6-carboxamide] | < 1
CN1CCN([C@@H]2CCCN(c3nnc(C(N)=O)c(Nc4ccc(N5CCN(CC6CCN(c7ccc(NC8CCC(=O)NC8=O)c(F)c7)C6)CC5)c(F)c4)n3)C2)C1=O (stereo partly drawn) [Compound 204, 5-((4-(4-((1-(4-((2,6-dioxopiperidin-3-yl)amino)-3-fluorophenyl)pyrrolidin-3-yl)methyl)piperazin-1-yl)-3-fluorophenyl)amino)-3-((R)-3-(3-methyl-2-oxoimidazolidin-1-yl)piperidin-1-yl)-1,2,4-triazin-6-carboxamide] | < 1
Cc1cc(N2CCC(CN3CCN(c4ccc(Nc5nc(N6CCC[C@@H](N7CCN(C)C7=O)C6)nnc5C(N)=O)cc4F)CC3)C2)ccc1NC1CCC(=O)NC1=O (stereo partly drawn) [Compound 206, 5-((4-(4-((1-(4-((2,6-dioxopiperidin-3-yl)amino)-3-methylphenyl)pyrrolidin-3-yl)methyl)piperazin-1-yl)-3-fluorophenyl)amino)-3-((R)-3-(3-methyl-2-oxoimidazolidin-1-yl)piperidin-1-yl)-1,2,4-triazin-6-carboxamide] | < 1
CN1CCN([C@@H]2CCCN(c3nnc(C(N)=O)c(Nc4ccc(N5CCN(CC6CCN(c7ccc(NC8CCC(=O)NC8=O)c8c7OCO8)C6)CC5)c(F)c4)n3)C2)C1=O (stereo partly drawn) [Compound 208, 5-((4-(4-((1-(7-((2,6-dioxopiperidin-3-yl)amino)benzo[d][1,3]dioxacyclopent-4-yl)pyrrolidin-3-yl)methyl)piperazin-1-yl)-3-fluorophenyl)amino)-3-((R)-3-(3-methyl-2-oxoimidazolidin-1-yl)piperidin-1-yl)-1,2,4-triazin-6-carboxamide] | < 1
CN1CCN([C@@H]2CCCN(c3nnc(C(N)=O)c(Nc4ccc(N5CCN(CC6CCN(c7ccc(NC8CCC(=O)NC8=O)c8c7OCCO8)CC6)CC5)c(F)c4)n3)C2)C1=O (stereo partly drawn) [Compound 211, 5-((4-(4-((1-(8-((2,6-dioxopiperidin-3-yl)amino)-2,3-dihydrobenzo[b][1,4]dioxan-5-yl)piperidin-4-yl)methyl)piperazin-1-yl)-3-fluorophenyl)amino)-3-((R)-3-(3-methyl-2-oxoimidazolidin-1-yl)piperidin-1-yl)-1,2,4-triazin-6-carboxamide] | < 1
CN1CCN([C@@H]2CCCN(c3nnc(C(N)=O)c(Nc4ccc(N5CCN(CC6CCN(c7ccc8c(C9CCC(=O)NC9=O)nn(C)c8c7)C6)CC5)c(F)c4)n3)C2)C1=O (stereo partly drawn) [Compound 212, 5-((4-(4-((1-(3-(2,6-dioxopiperidin-3-yl)-1-methyl-1H-indazol-6-yl)pyrrolidin-3-yl)methyl)piperazin-1-yl)-3-fluorophenyl)amino)-3-((R)-3-(3-methyl-2-oxoimidazolidin-1-yl)piperidin-1-yl)-1,2,4-triazin-6-carboxamide] | < 1
CN1CCN([C@@H]2CCCN(c3nnc(C(N)=O)c(Nc4ccc(N5CCN(CC6CCN(c7ccc8c(C9CCC(=O)NC9=O)nn(C)c8n7)C6)CC5)c(F)c4)n3)C2)C1=O (stereo partly drawn) [Compound 214, 5-((4-(4-((1-(3-(2,6-dioxopiperidin-3-yl)-1-methyl-H-pyrazolo[3,4-b]pyridin-6-yl)pyrrolidin-3-yl)methyl)piperazin-1-yl)-3-fluorophenyl)amino)-3-((R)-3-(3-methyl-2-oxoimidazolidin-1-yl)piperidin-1-yl)-1,2,4-triazin-6-carboxamide] | < 1
CN1CCN([C@@H]2CCCN(c3nnc(C(N)=O)c(Nc4ccc(N5CCN(CC6CCN(c7ccc8c(C9CCC(=O)NC9=O)nn(C)c8n7)CC6)CC5)c(F)c4)n3)C2)C1=O (stereo partly drawn) [Compound 215, 5-((4-(4-((1-(3-(2,6-dioxopiperidin-3-yl)-1-methyl-1H-pyrazolyl[3,4-b]pyridin-6-yl)piperidin-4-yl)methyl)piperazin-1-yl)-3-fluorophenyl)amino)-3-((R)-3-(3-methyl-2-oxoimidazolidin-1-yl)piperidin-1-yl)-1,2,4-triazin-6-carboxamide] | < 1
CN1CCN([C@@H]2CCCN(c3nnc(C(N)=O)c(Nc4ccc(N5CCN(CC6CCN(c7cccc8c(C9CCC(=O)NC9=O)nn(C)c78)C6)CC5)c(F)c4)n3)C2)C1=O (stereo partly drawn) [Compound 216, 5-((4-(4-((1-(3-(2,6-dioxopiperidin-3-yl)-1-methyl-1H-indazol-7-yl)pyrrolidin-3-yl)methyl)piperazin-1-yl)-3-fluorophenyl)amino)-3-((R)-3-(3-methyl-2-oxoimidazolidin-1-yl)piperidin-1-yl)-1,2,4-triazin-6-carboxamide] | < 1
CN1CCN([C@@H]2CCCN(c3nnc(C(N)=O)c(Nc4ccc(N5CCN(CC6CCN(c7cccc8c(C9CCC(=O)NC9=O)nn(C)c78)CC6)CC5)c(F)c4)n3)C2)C1=O (stereo partly drawn) [Compound 217, 5-((4-(4-((1-(3-(2,6-dioxopiperidin-3-yl)-1-methyl-H-indazol-7-yl)piperidin-4-yl)methyl)piperazin-1-yl)-3-fluorophenyl)amino)-3-((R)-3-(3-methyl-2-oxoimidazolidin-1-yl)piperidin-1-yl)-1,2,4-triazin-6-carboxamide] | < 1
CN1CCN([C@@H]2CCCN(c3nnc(C(N)=O)c(Nc4ccc(N5CCN(CC6CCN(c7ccc8c9c([nH]c8c7)C(=O)N(C7CCC(=O)NC7=O)C9)C6)CC5)c(F)c4)n3)C2)C1=O (stereo partly drawn) [Compound 220, 5-((4-(4-((1-(2-(2,6-dioxopiperidin-3-yl)-3-oxo-1,2,3,4-tetrahydropyrrolo[3,4-b]indol-6-yl)pyrrolidin-3-yl)methyl)piperazin-1-yl)-3-fluorophenyl)amino)-3-((R)-3-(3-methyl-2-oxoimidazolidin-1-yl)piperidin-1-yl)-1,2,4-triazin-6-carboxamide] | < 1
CN1CCN([C@@H]2CCCN(c3nnc(C(N)=O)c(Nc4ccc(N5CCN(CC6CCN(c7ccc8c9c(oc8c7)C(=O)N(C7CCC(=O)NC7=O)C9)C6)CC5)c(F)c4)n3)C2)C1=O (stereo partly drawn) [Compound 221, 5-((4-(4-((1-(2-(2,6-dioxopiperidin-3-yl)-3-oxo-2,3-dihydro-H-benzofuro[2,3-c]pyrrol-6-yl)pyrrolidin-3-yl)methyl)piperazin-1-yl)-3-fluorophenyl)amino)-3-((R)-3-(3-methyl-2-oxoimidazolidin-1-yl)piperidin-1-yl)-1,2,4-triazin-6-carboxamide] | < 1
CN1CCN([C@@H]2CCCN(c3nnc(C(N)=O)c(Nc4ccc(N5CCN(C#Cc6ccc(C(=O)NC7CCC(=O)NC7=O)c(F)c6)CC5)c(F)c4)n3)C2)C1=O (stereo partly drawn) [Compound 225, 5-((4-(4-((4-((2,6-dioxopiperidin-3-yl)carbamoyl)-3-fluorophenyl)ethynyl)piperazin-1-yl)-3-fluorophenyl)amino)-3-((R)-3-(3-methyl-2-oxoimidazolidin-1-yl)piperidin-1-yl)-1,2,4-triazin-6-carboxamide] | < 1
